Measurements from patent US8613931B2, “Compounds for treating beta-amyloidoses” (Affiris AG, priority 2008, dated 2013).

Legend:
[1] = system: full length and/or truncated and modified forms of Aβ; assay: In vivo characterisation of mimotopes: detection of Aβ/truncated/modified forms; set-up: species or system C57/bl6 mice; key: +: All peptides listed in Table 4 mount specific immune reactions against full length and/or truncated and modified forms of Aβ or fragments thereof; settings: MV-001 derived mimotopes; mimotope vaccination
Protocol: Inhibiting as well as non-inhibiting peptides were coupled to KLH and injected into mice (wildtype C57/Bl6 mice; subcutaneous injection into the flank) together with an appropriate adjuvant (aluminium hydroxide). Animals were vaccinated 3-6 times in biweekly intervals and sera were taken biweekly as well. Titers to injected peptides, as well as to an irrelevant peptide were determined with every serum. Furthermore, titers against the recombinant human Aβ protein, and against original peptides were determined respectively. In general sera were analysed by reaction against peptides coupled to Bovine Serum Albumin (BSA) and recombinant full length proteins which were immobilised on ELISA plates. Titers were determined using anti mouse IgG specific antibodies. For detailed results see FIGS. 6, 7 and 8 respectively.
Female C57/bl6 mice, 5-6 mice per group, were subcutaneously immunized with 30 μg peptide coupled to KLH. Control groups were administered original epitope-KLH conjugates respectively. As adjuvant alum was used (always 1 mg per mouse). […] The in vitro ELISA assay to determine the antibody titer was performed with sera of single mice after each vaccination in a two week interval (see FIGS. 6 and 7 respectively). The wells of the ELISA plate were coated with mimotope-BSA conjugate and an irrelevant peptide-BSA conjugate (negative control). The positive control was performed by reaction of the parental antibody with the respective mimotope-BSA conjugate. The detection was performed with anti-mouse IgG. Additionally, recombinant proteins were immobilised on ELISA plates and sera reacted accordingly. FIGS. 6 to 8 show representative examples for assays used to characterise mimotopes in vivo.

[2] = system: monoclonal antibody MV-001; assay: In vitro binding assay (ELISA), parental antibody MV-001; set-up: species or system C57/Bl6 mice; settings: peptide-BSA on ELISA plate; OD halfmax, dilution factor 1:X of parental AB MV-001
Protocol: 1. In vitro binding assay (ELISA)
Peptides derived from Phage Display as well as variants thereof were coupled to BSA and bound to ELISA plates (1 μM; as indicated in the respective figures) and subsequently incubated with the monoclonal antibody that was used for the screening procedure to analyse binding capacity of identified peptides.

[3] = system: monoclonal antibody MV-001; assay: In vitro inhibition assay (ELISA), MV-001 binding to original epitope; set-up: species or system C57/Bl6 mice; settings: OD at 10 μg peptide compared to original peptide
Protocol: (§1) 2. In vitro inhibition assay (ELISA)
(§2) Different amounts of peptides (concentrations ranging from 10 μg to 0.08 μg; serial dilutions), derived from Phage Display were incubated with the monoclonal antibody that was used for the screening procedure. Peptides diminishing subsequent binding of the antibody to the original epitope coated on ELISA plates were considered as inhibiting in this assay.

[4] = system: monoclonal antibody MV-004; assay: In vitro inhibition assay (ELISA), MV-004 binding to original epitope; set-up: species or system BalbC mice; settings: OD at 10 μg peptide compared to original peptide
Protocol: as §1, §2

Tg2576 AD mouse model = assay: Area occupied by amyloid plaques in Tg2576 mice after mimotope vaccination; type: in vivo; settings: Tg2576, 6 s.c. injections at monthly intervals, peptide-KLH conjugate with ALUM; for average area occupied by amyloid plaques: mAb 3A5 staining, control group 0.35%; for reduction of area occupied by amyloid plaques following mimotope treatment: versus control group
[5] = target: monoclonal antibody MV-004; assay: ELISA, peptide-BSA coated, MV-004; settings: for Binding Capacity: scale: code
[6] = target: monoclonal antibody MV-004; assay: inhibition ELISA; competitor: coated original epitope p4372; settings: for Inhibition Capacity: scale: code
[7] = target: monoclonal antibody MV-003; assay: inhibition ELISA; competitor: coated original epitope p4373
[8] = target: monoclonal antibody MV-003; assay: ELISA, peptide-BSA coated, MV-003; settings: for Binding Capacity: scale: code

QSEFKHWC [p4738]
Detection of Aβ/truncated/modified forms [1]: +
Binding Capacity [2]: 3 (strong binding :>20000)
Inhibition Capacity [3]: 1 (Weaker than original epitope (OD of 10 μg peptide below 3 times of original peptide))

TSVFRHC [p4383]
Detection of Aβ/truncated/modified forms [1]: +
Binding Capacity [2]: 3 (strong binding :>20000)
Inhibition Capacity [3]: 1 (Weaker than original epitope (OD of 10 μg peptide below 3 times of original peptide))

LMFRHNC [p4386]
Detection of Aβ/truncated/modified forms [1]: +
Binding Capacity [2]: 3 (strong binding :>20000)
Inhibition Capacity [3]: 1 (Weaker than original epitope (OD of 10 μg peptide below 3 times of original peptide))

SQFRHYC [p4385]
Detection of Aβ/truncated/modified forms [1]: +
Inhibition Capacity [3]: 1 (Weaker than original epitope (OD of 10 μg peptide below 3 times of original peptide))

SPNQFRHC [p4707]
Detection of Aβ/truncated/modified forms [1]: +
Binding Capacity [2]: 3 (strong binding :>20000)
Inhibition Capacity [3]: 1 (Weaker than original epitope (OD of 10 μg peptide below 3 times of original peptide))

ADHDFRHC [p4740]
Detection of Aβ/truncated/modified forms [1]: +
Binding Capacity [2]: 3 (strong binding :>20000)
Inhibition Capacity [3]: 1 (Weaker than original epitope (OD of 10 μg peptide below 3 times of original peptide))

YEFRHAQC [p4748]
Detection of Aβ/truncated/modified forms [1]: +
Binding Capacity [2]: 3 (strong binding :>20000)

ERWHEKC [p4790]
Inhibition Capacity [4]: 2 (strong inhibition (as original epitope; OD of 10 μg peptide below 2 times of original peptide))

ELWHRAFC [p4665]
Inhibition Capacity [4]: 2 (strong inhibition (as original epitope; OD of 10 μg peptide below 2 times of original peptide))

EVWHRHQC [p4417]
Inhibition Capacity [4]: 1 (Weaker than original epitope (OD of 10 μg peptide below 5 times of original peptide))

ELWHRYPC [p4420]
Inhibition Capacity [4]: 1 (Weaker than original epitope (OD of 10 μg peptide below 5 times of original peptide))

EVWHRGC [p4788]
Inhibition Capacity [4]: 1 (Weaker than original epitope (OD of 10 μg peptide below 5 times of original peptide))

ELWHRAC [p4786]
Inhibition Capacity [4]: 1 (Weaker than original epitope (OD of 10 μg peptide below 5 times of original peptide))

DEHPFRHC [p4730]
Detection of Aβ/truncated/modified forms [1]: +
Binding Capacity [2]: 3 (strong binding :>20000)
Inhibition Capacity [3]: 1 (Weaker than original epitope (OD of 10 μg peptide below 3 times of original peptide))

NWFPHPC [p4392]
Binding Capacity [2]: 1 (weak binding :<4000)
Inhibition Capacity [3]: 1 (Weaker than original epitope (OD of 10 μg peptide below 3 times of original peptide))

EVWHRLQC [p4419]
Inhibition Capacity [4]: 2 (strong inhibition (as original epitope; OD of 10 μg peptide below 2 times of original peptide))

ERWHEKHC [p4418]
Inhibition Capacity [4]: 2 (strong inhibition (as original epitope; OD of 10 μg peptide below 2 times of original peptide))

THTDFRHC [p4725]
Detection of Aβ/truncated/modified forms [1]: +
Binding Capacity [2]: 3 (strong binding :>20000)
Inhibition Capacity [3]: 1 (Weaker than original epitope (OD of 10 μg peptide below 3 times of original peptide))

TEFRHKAC [p4753]
Detection of Aβ/truncated/modified forms [1]: +
Binding Capacity [2]: 3 (strong binding :>20000)
Inhibition Capacity [3]: 2 (strong inhibition (as original epitope; OD of 10 μg peptide below 2 times of original peptide))

ILFRHGC [p4390]
Detection of Aβ/truncated/modified forms [1]: +
Binding Capacity [2]: 3 (strong binding :>20000)
Inhibition Capacity [3]: 1 (Weaker than original epitope (OD of 10 μg peptide below 3 times of original peptide))
average area occupied by amyloid plaques (Tg2576 AD mouse model): 0.14%
reduction of area occupied by amyloid plaques following mimotope treatment (Tg2576 AD mouse model): 60%

EVWHRHC [p4789]
Inhibition Capacity [4]: 1 (Weaker than original epitope (OD of 10 μg peptide below 5 times of original peptide))

ELFKHHLC [p4714]
Detection of Aβ/truncated/modified forms [1]: +
Binding Capacity [2]: 3 (strong binding :>20000)

CSEFKH [p4800]
Binding Capacity [2]: 3 (strong binding :>20000)
Inhibition Capacity [3]: 2 (strong inhibition (as original epitope; OD of 10 μg peptide below 2 times of original peptide))

DGLLFKHC [p4741]
Binding Capacity [2]: 3 (strong binding :>20000)
Inhibition Capacity [3]: 1 (Weaker than original epitope (OD of 10 μg peptide below 3 times of original peptide))

SEFKHGC [p4381]
Detection of Aβ/truncated/modified forms [1]: +
Binding Capacity [2]: 3 (strong binding :>20000)
Inhibition Capacity [3]: 1 (Weaker than original epitope (OD of 10 μg peptide below 3 times of original peptide))
average area occupied by amyloid plaques (Tg2576 AD mouse model): 0.11%
reduction of area occupied by amyloid plaques following mimotope treatment (Tg2576 AD mouse model): 67%

TLHEFRHC [p4715]
Detection of Aβ/truncated/modified forms [1]: +
Binding Capacity [2]: 3 (strong binding :>20000)
Inhibition Capacity [3]: 2 (strong inhibition (as original epitope; OD of 10 μg peptide below 2 times of original peptide))
average area occupied by amyloid plaques (Tg2576 AD mouse model): 0.22%
reduction of area occupied by amyloid plaques following mimotope treatment (Tg2576 AD mouse model): 36%

B1: p4788 (peptide)
peptide: EVWHRGC
Binding Capacity (code (weak binding, OD halfmax 1:<24000)) [5]: 1
Inhibition Capacity (code (weaker than original epitope)) [6]: 1

B2: p4786 (peptide)
peptide: ELWHRAC
Binding Capacity (code (weak binding, OD halfmax 1:<24000)) [5]: 1
Inhibition Capacity (code (weaker than original epitope)) [6]: 1

B3: p4756 (peptide)
peptide: IRWDQPC
Inhibition Capacity (code (weaker than original epitope)) [7]: 1
Binding Capacity [8]: 3

B4: p4419 (peptide)
peptide: EVWHRLQC
Binding Capacity [5]: 3
Inhibition Capacity [6]: 2

B5: p4417 (peptide)
peptide: EVWHRHQC
Binding Capacity [5]: 2
Inhibition Capacity (code (weaker than original epitope)) [6]: 1

B6: p4397 (peptide)
peptide: IRYDAPLC
Inhibition Capacity (code (weaker than original epitope)) [7]: 1
Binding Capacity (code (weak binding, OD halfmax 1:<16000)) [8]: 1

B7: p4418 (peptide)
peptide: ERWHEKHC
Binding Capacity [5]: 3
Inhibition Capacity [6]: 2

B8: p4790 (peptide)
peptide: ERWHEKC
Binding Capacity (code (weak binding, OD halfmax 1:<24000)) [5]: 1
Inhibition Capacity [6]: 2

B9: p4792 (peptide)
peptide: IRWDGC
Inhibition Capacity (code (weaker than original epitope)) [7]: 1
Binding Capacity (code (weak binding, OD halfmax 1:<16000)) [8]: 1

B10: p4793 (peptide)
peptide: IRWDGGC
Inhibition Capacity (code (weaker than original epitope)) [7]: 1
Binding Capacity [8]: 2

B11: p4395 (peptide)
peptide: IRWDTPC
Inhibition Capacity (code (weaker than original epitope)) [7]: 1
Binding Capacity [8]: 2

B12: p4789 (peptide)
peptide: EVWHRHC
Binding Capacity (code (weak binding, OD halfmax 1:<24000)) [5]: 1
Inhibition Capacity (code (weaker than original epitope)) [6]: 1

B13: p4420 (peptide)
peptide: ELWHRYPC
Binding Capacity [5]: 2
Inhibition Capacity (code (weaker than original epitope)) [6]: 1

B14: p4728 (peptide)
peptide: IRWDTSLC
Inhibition Capacity ([7]; scale: code): 2
Binding Capacity [8]: 3

B15: p4396 (peptide)
peptide: VRWDVYPC
Binding Capacity (code (weak binding, OD halfmax 1:<16000)) [8]: 1

B16: p4665 (peptide)
peptide: ELWHRAFC
Binding Capacity [5]: 2
Inhibition Capacity [6]: 2

B17: p4399 (peptide)
peptide: IRYDMAGC
Binding Capacity (code (weak binding, OD halfmax 1:<16000)) [8]: 1
